Assay results reported in patent US20090239846A1, “Novel Compounds” (Glaxo Group Limited, priority 2005, published 2009).
Counter-ions that a name gives are not always drawn. Like-named read-outs stand apart in the source and are kept apart here.

Tests used:
[1] = biological target: T1, Recombinant human p38α (Homo sapiens, UniProt Q16539); experiment: Fluorescence anisotropy kinase binding assay (standard or low volume); details: for active in the assay (pIC50, p38α binding): 12 nM p38α, 5 nM fluorescent ligand
T1 construct: GST; made in house
T1 sequence (Q16539 whole entry): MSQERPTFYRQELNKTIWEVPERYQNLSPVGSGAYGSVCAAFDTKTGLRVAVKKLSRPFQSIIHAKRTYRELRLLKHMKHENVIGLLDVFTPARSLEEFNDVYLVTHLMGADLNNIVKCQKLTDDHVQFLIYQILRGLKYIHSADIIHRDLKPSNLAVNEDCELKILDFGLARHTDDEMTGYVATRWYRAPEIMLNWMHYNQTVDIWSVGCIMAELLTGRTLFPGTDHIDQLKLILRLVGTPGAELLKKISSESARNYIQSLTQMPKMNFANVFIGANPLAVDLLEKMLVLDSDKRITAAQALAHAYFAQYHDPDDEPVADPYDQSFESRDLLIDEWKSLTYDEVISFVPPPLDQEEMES
From the text: (§1) The concentration of kinase enzyme should preferably be >2×Kf. The concentration of fluorescent ligand required will depend on the instrumentation used, and the fluorescent and physicochemical properties. The concentration used must be lower than the concentration of kinase enzyme, and preferably less than half the kinase enzyme concentration.
The fluorescent ligand is the following compound:
[drawing 329] • which is derived from 5-[2-(4-aminomethylphenyl)-5-pyridin-4-yl-1H-imidazol-4-yl]-2-chlorophenol and rhodamine green. Recombinant human p38α was expressed as a GST-tagged protein. To activate this protein, 3.5 μM unactivated p38α was incubated in 50 mM Tris-HCl pH 7.5, 0.1 mM EGTA, 0.1% 2-mercaptoethanol, 0.1 mM sodium vanadate, 10 mM MgAc, 0.1 mM ATP with 200 nM MBP-MKK6 DD at 30 degrees for 30 mins. Following activation p38α was re-purified and the activity assessed using a standard filter-binding assay. Protocol: All components are dissolved in buffer of composition 62.5 mM HEPES, pH 7.5, 1.25 mM CHAPS, 1 mM DTT, 12.5 mM MgCl2 with final concentrations of 12 nM p38α and 5 nM fluorescent ligand. 30 μl of this reaction mixture is added to wells containing 1 μl of various concentrations of test compound (0.28 nM-16.6 μM final) or DMSO vehicle (3% final) in NUNC 384 well black microtitre plate and equilibrated for 30-60 mins at room temperature. Fluorescence anisotropy is read in Molecular Devices Acquest (excitation 485 nm/emission 535 nm). Definitions: Ki=dissociation constant for inhibitor binding • Kf=dissociation constant for fluorescent ligand binding
as §1, with “2×Kf.” for “>2×Kf.”, “concentration. The fluorescent ligand is the following compound:” for “concentration.”
which is derived from 5-[2-(4-aminomethylphenyl)-5-pyridin-4-yl-1H-imidazol-4-yl]-2-chlorophenol and rhodamine green. Recombinant human p38α was expressed as a GST-tagged protein. To activate this protein, 3.5 μM unactivated p38α was incubated in 50 mM Tris-HCl pH 7.5, 0.1 mM EGTA, 0.1% 2-mercaptoethanol, 0.1 mM sodium vanadate, 10 mM MgAc, 0.1 mM ATP with 200 nM MBP-MKK6 DD at 30 degrees for 30 mins. Following activation p38α was re-purified and the activity assessed using a standard filter-binding assay. Protocol: All components are dissolved in buffer of composition 62.5 mM HEPES, pH 7.5, 1.25 mM CHAPS, 1 mM DTT, 12.5 mM MgCl2 with final concentrations of 12 nM p38α and 5 nM fluorescent ligand. […] of this reaction mixture is added to wells containing 0.1 μl of various concentrations of test compound (0.02 nM-25 μM final) or DMSO vehicle (1.7% final) in Greiner low volume 384 well black microtitre plate and equilibrated for 30-60 mins at room temperature. Fluorescence anisotropy is read in Molecular Devices Acquest (excitation 485 nm/emission 535 nm). Definitions: Ki dissociation constant for inhibitor binding • Kf=dissociation constant for fluorescent ligand binding It is noted that there are two assay formats shown above for the Fluorescence anisotropy kinase binding assay. The only difference between these two assays is the volume used and the plate type. […] The results described herein may have been performed in either assay format and are not differentiated as to which.

[2] = tested on: IL-8 production by human neutrophils; experiment: TNF-stimulated IL-8 production from human neutrophils; type: cell-based; details: Neutrophil
[3] = bound, not more than 50% inhibition at 100 nM, read-out: IC50
[4] = bound, read-out: apparent pIC50 (converted)
[5] = ends given as 'less than' / 'greater than', read-out: IC50, broad range of data upon multiple runs

IC50 [2, 3] [µM]	SMILES	also measured
> 0.1	CN(C)CCNc1nc(-c2ccc(C(=O)Nc3ccccc3)cc2)c2c(n1)N(c1c(F)cccc1F)C(=O)NC2 [Example 99, 4-(8-(2,6-difluorophenyl)-2-{[2-(dimethylamino)ethyl]amino}-7-oxo-5,6,7,8-tetrahydropyrimido[4,5-d]-pyrimidin-4-yl)-N-phenylbenzamide trifluoroacetate]	IC50 ([1]; second end given as 'less than', read-out: pIC50, broad range of data upon multiple runs (converted)): ≥ 1.26 µM
> 0.1	CN(C)CCNc1nc(-c2ccc(C(=O)N(C)C)cc2)c2c(n1)N(c1c(F)cccc1F)C(=O)NC2 [Example 101, 4-(8-(2,6-difluorophenyl)-2-{[2-(dimethylamino)ethyl]amino}-7-oxo-5,6,7,8-tetrahydropyrimido[4,5-d]pyrimidin-4-yl)-N,N-dimethylbenzamide trifluoroacetate]	IC50 [1, 4]: > 15.8 µM
> 0.1	CN(C)CCNc1nc(-c2cccc(C(=O)N(C)C)c2)c2c(n1)N(c1c(F)cccc1F)C(=O)NC2 [Example 90, 3-(8-(2,6-difluorophenyl)-2-{[2-(dimethylamino)ethyl]amino}-7-oxo-5,6,7,8-tetrahydropyrimido[4,5-d]pyrimidin-4-yl)-N,N-dimethylbenzamide]	
> 0.1	CNC(=O)c1ccc(-c2nc(NCCN(C)C)nc3c2CNC(=O)N3c2c(F)cccc2F)c(C)c1 [Example 109, 4-(8-(2,6-difluorophenyl)-2-{[2-(dimethylamino)ethyl]amino}-7-oxo-5,6,7,8-tetrahydropyrimido[4,5-d]pyrimidin-4-yl)-N,3-dimethylbenzamide trifluoroacetate]	

The next lines start with the compound.

SMILES	IC50 [2, 3] [µM]	also measured
CNCCNc1nc(-c2cc(C(=O)NCC3CC3)ccc2C)c2c(n1)N(c1c(F)cccc1F)C(=O)NC2 [Example 5, N-(Cyclopropylmethyl)-3-(8-(2,6-difluorophenyl)-2-{[2-(methylamino)ethyl]amino}-7-oxo-5,6,7,8-tetrahydropyrimido[4,5-d]pyrimidin-4-yl)-4-methylbenzamide]	> 0.1	active in the assay (pIC50, p38α binding) [1]: active
Cc1ccc(C(=O)NCC2CC2)cc1-c1nc(NC2CCNCC2)nc2c1CNC(=O)N2c1c(F)cccc1F [6(b), N-(Cyclopropylmethyl)-3-[8-(2,6-difluorophenyl)-7-oxo-2-(4-piperidinylamino)-5,6,7,8-tetrahydropyrimido[4,5-d]pyrimidin-4-yl]-4-methylbenzamide]	> 0.1	active in the assay (pIC50, p38α binding) [1]: active
CCCNC(=O)c1ccc(C)c(-c2nc(NCCCNC(C)(C)C)nc3c2CNC(=O)N3c2c(F)cccc2F)c1 [Example 65, 3-[8-(2,6-difluorophenyl)-2-({3-[(1,1-dimethylethyl)amino]propyl}amino)-7-oxo-5,6,7,8-tetrahydropyrimido[4,5-d]pyrimidin-4-yl]-4-methyl-N-propylbenzamide]	> 0.1	
Cc1c(F)cc(C(=O)N(C)C)cc1-c1nc(NCCN(C)C)nc2c1CNC(=O)N2c1c(F)cccc1F [Example 113, 3-(8-(2,6-difluorophenyl)-2-{[2-(dimethylamino)ethyl]amino}-7-oxo-5,6,7,8-tetrahydropyrimido[4,5-d]pyrimidin-4-yl)-5-fluoro-N,N,4-trimethylbenzamide]	> 0.1	
Cc1ccc(C(=O)NCc2ccccc2)cc1-c1nc(NCCN(C)C(=O)OC(C)(C)C)nc2c1CNC(=O)N2c1c(F)cccc1F [19(a), 1,1-Dimethylethyl (2-{[8-(2,6-difluorophenyl)-4-(2-methyl-5-{[(phenylmethyl)amino]carbonyl}phenyl)-7-oxo-5,6,7,8-tetrahydropyrimido[4,5-d]pyrimidin-2-yl]amino}ethyl)methylcarbamate]		IC50 [1, 4]: > 15.8 µM; IC50 [2, 5]: 0.04 to 0.1 µM
CCN(CC)C(=O)c1ccc(C)c(-c2nc(SC)nc3c2CNC(=O)N3c2c(F)cccc2F)c1 [156(a)]	> 0.1	active in the assay (pIC50, p38α binding) [1]: active
Cc1ccc(C(=O)NC(C)C)cc1-c1nc(NCCCNC(C)C)nc2c1CNC(=O)N2c1c(F)cccc1F [Example 49, 3-[8-(2,6-difluorophenyl)-2-({3-[(1-methylethyl)amino]propyl}amino)-7-oxo-5,6,7,8-tetrahydropyrimido[4,5-d]pyrimidin-4-yl]-4-methyl-N-(1-methylethyl)benzamide]	> 0.1	
CCCNC(=O)c1ccc(C)c(-c2nc(NCCCNCC)nc3c2CNC(=O)N3c2c(F)cccc2F)c1 [230(b), 3-(8-(2,6-difluorophenyl)-2-{[3-(ethylamino)propyl]amino}-7-oxo-5,6,7,8-tetrahydropyrimido[4,5-d]pyrimidin-4-yl)-4-methyl-N-propylbenzamide trifluoroacetate]	> 0.1	
Cc1ccc(C(=O)NC(C)C)cc1-c1nc(N2CCC(N3CCOCC3)CC2)nc2c1CNC(=O)N2c1c(F)cccc1F [Example 71, 3-{8-(2,6-difluorophenyl)-2-[4-(4-morpholinyl)-1-piperidinyl]-7-oxo-5,6,7,8-tetrahydropyrimido[4,5-d]pyrimidin-4-yl}-4-methyl-N-(1-methylethyl)benzamide]		IC50 ([2]; bound, screened at a different top concentration, read-out: IC50): > 0.001 µM
CCCNC(=O)c1ccc(C)c(-c2nc(NCCNC(C)C)nc3c2CNC(=O)N3c2c(F)cccc2F)c1 [Example 62, 3-[8-(2,6-difluorophenyl)-2-({2-[(1-methylethyl)amino]ethyl}amino)-7-oxo-5,6,7,8-tetrahydropyrimido[4,5-d]pyrimidin-4-yl]-4-methyl-N-propylbenzamide]	> 0.1	
CCCNC(=O)c1ccc(C)c(-c2nc(NCCC(=O)O)nc3c2CNC(=O)N3c2c(F)cccc2F)c1 [Example 229, N-(8-(2,6-difluorophenyl)-4-{2-methyl-5-[(propylamino)carbonyl]phenyl}-7-oxo-5,6,7,8-tetrahydropyrimido[4,5-d]pyrimidin-2-yl)-β-alanine]	> 0.1	
Cc1c(F)cc(C(=O)Nc2ccc(F)cc2)cc1-c1nc(NCCN(C)C)nc2c1CNC(=O)N2c1c(F)cccc1F [Example 115, 3-(8-(2,6-difluorophenyl)-2-{[2-(dimethylamino)ethyl]amino}-7-oxo-5,6,7,8-tetrahydropyrimido[4,5-d]pyrimidin-4-yl)-5-fluoro-N-(4-fluorophenyl)-4-methylbenzamide]		IC50 [2, 5]: 0.001 to 0.1 µM
Cc1ccc(C(=O)NC(C)C)cc1-c1nc(NCCCNC(C)(C)C)nc2c1CNC(=O)N2c1c(F)cccc1F [Example 50, 3-[8-(2,6-difluorophenyl)-2-({3-[(1,1-dimethylethyl)amino]propyl}amino)-7-oxo-5,6,7,8-tetrahydropyrimido[4,5-d]pyrimidin-4-yl]-4-methyl-N-(1-methylethyl)benzamide]	> 0.1	
Cc1ccc(C(=O)NC(C)C)cc1-c1nc(N(C)CCCN(C)CCCN(C)C)nc2c1CNC(=O)N2c1c(F)cccc1F [Example 116, 3-{8-(2,6-difluorophenyl)-2-[{3-[[3-(dimethylamino)propyl]-(methyl)amino]propyl}(methyl)amino]-7-oxo-5,6,7,8-tetrahydropyrimido[4,5-d]pyrimidin-4-yl}-4-methyl-N-(1-methylethyl)benzamide]	> 0.1	
Cc1ccc(C(=O)NC(C)C)cc1-c1nc(NCCN2CCN(Cc3ccccc3)CC2)nc2c1CNC(=O)N2c1c(F)cccc1F [Example 197, 3-[8-(2,6-difluorophenyl)-7-oxo-2-({2-[4-(phenylmethyl)-1-piperazinyl]ethyl}amino)-5,6,7,8-tetrahydropyrimido[4,5-d]pyrimidin-4-yl]-4-methyl-N-(1-methylethyl)benzamide trifluoroacetate]	> 0.1	
